Laboratory results taken from PMC6161602, “Synthesis and characterisation of (Z)-styrylbenzene derivatives as potential selective anticancer agents” (Journal of Enzyme Inhibition and Medicinal Chemistry, 2018).

What was measured:
[1] = system: L-02 normal liver cell; experiment: MTT cell growth inhibition assay, L-02 (normal); format: cell-based, human; conditions: Homo sapiens, 48 h incubation, L-02 normal cells
Source text: (§1) All human cell lines were used in this study. MGC-803 late-stage differentiation gastric cancer cell, A549 lung cancer cell, HepG2 hepatoma cell, AGS gastric cancer cell, BEL-7402 liver cancer cell, HCT-116 colorectal cancer cell, HeLa cervical cancer cell, SGC-7901 early differentiation gastric cancer cell, L-02 normal liver cell, MCF-7 breast cancer cell, and MCF-10A normal breast cell were initially purchased from American Type Culture Collection (ATCC, Manassas, VA, USA). RPMI-1640 media, Dulbecco’s modified Eagle’s medium (DMEM), and foetal bovine serum (FBS) were provided from Gibco Company (Grand Island, NY, USA). The cells were maintained in DMEM or RPMI-1640, supplemented with 10% FBS, 100 IU/mL penicillin and […] (Grand Island, NY, USA), and at 37 °C in a humidified atmosphere containing 5% CO2.
(§2) Cells were plated in 96-well plates at a density of 30–40% to ensure exponential growth throughout the experimental period, and then allowed to adhere for 1 day[21]. Next, the cells were treated with four serial concentrations (1, 10, 50, and 100 µM) of each compound. Taxol, CA-4, and CA-4P (phosphorylated form of CA-4) were used as positive controls. After 48 h incubation, MTT solution was added to each well at a final concentration of 2 mg/mL, and incubated for an additional 4 h. Next, the MTT solution was removed and 150 µL of dimethyl sulphoxide (DMSO)/well was added (Sigma-Aldrich, St Louis, MO, USA). The plates were shaken vigorously at RT to ensure complete solubilisation, and absorption at 492 nm was determined.
(§3) According to standard protocol, preliminary in vitro anti-proliferative activities of the synthesised compounds were evaluated by MTT assay, using nine human cancer cell lines (MGC-803, A549, HepG2, AGS, BEL-7402, HCT116, HeLa, SGC-7901, and MCF-7) and two normal human cell lines (L-02 and MCF-10A), and compared with those of CA-4, CA-4P, and taxol.

[2] = system: HCT116 cells; experiment: MTT cell growth inhibition assay, HCT116; format: cell-based, human; conditions: for IC50: Homo sapiens, HCT-116, MTT, 48 h incubation, HCT116
Source text: as §1, §2, §3

[3] = system: MGC-803 cells; experiment: MTT cell growth inhibition assay, MGC-803; format: cell-based, human; conditions: for IC50: MTT, 48 h incubation, MGC-803
Source text: as §1, §2, §3

[4] = system: MCF-10A normal breast cell; experiment: MTT cell growth inhibition assay, MCF-10A (normal); format: cell-based, human; conditions: Homo sapiens, 48 h incubation, MCF-10A normal cells
Source text: as §1, §2, §3

[5] = system: A549 lung cancer cell; experiment: MTT cell growth inhibition assay, A549; format: cell-based, human; conditions: for IC50: Homo sapiens, MTT, 48 h incubation, A549
Source text: as §1, §2, §3

[6] = system: BEL-7402 cells; experiment: MTT cell growth inhibition assay, BEL-7402; format: cell-based, human; conditions: for IC50: Homo sapiens, MTT, 48 h incubation, Bel-7402
Source text: as §1, §2, §3

[7] = system: nine human cancer cell lines (MGC-803, A549, HepG2, AGS, BEL-7402, HCT116, HeLa, SGC-7901, and MCF-7); experiment: MTT assay, panel of cell lines (result in words); format: cell-based; conditions: against all nine cancer cell lines
Source text: as §1, §2, §3

[8] = system: HeLa cervical cancer cell; experiment: MTT cell growth inhibition assay, HeLa; format: cell-based, human; conditions: Homo sapiens, 48 h incubation
Source text: as §1, §2, §3

[9] = system: AGS cells; experiment: MTT cell growth inhibition assay, AGS; format: cell-based, human; conditions: for IC50: Homo sapiens, MTT, 48 h incubation, AGS
Source text: as §1, §2, §3

[10] = system: HepG2 hepatoma cell; experiment: MTT cell growth inhibition assay, HepG-2; format: cell-based, human; conditions: for IC50: Homo sapiens, HepG2, MTT, 48 h incubation, HepG-2
Source text: as §1, §2, §3

[11] = system: SGC-7901 early differentiation gastric cancer cell; experiment: MTT cell growth inhibition assay, SGC-7901; format: cell-based, human; conditions: Homo sapiens, 48 h incubation
Source text: as §1, §2, §3

[12] = system: MCF-7 breast cancer cell; experiment: MTT cell growth inhibition assay, MCF-7; format: cell-based, human; conditions: for IC50: Homo sapiens, MCF7, MTT, 48 h incubation, MCF-7
Source text: as §1, §2, §3

[13] = system: HeLa cells; parameters: method as in PMID 27887843; conditions: printed in Figure 1, previous experiment ref 2; cited from earlier work
[14] = system: BEL-7402 cells; experiment: Analysis of apoptosis by flow cytometry (Annexin V-FITC/PI); format: cell-based, human; conditions: BEL-7402, 0.1 µM, 12 h; vehicle 4.7%
Method: Apoptosis was detected using an apoptosis detection kit. BEL-7402 cells were plated in 6-well plates (5.0 × 10^5 cells/well) and incubated at 37 °C overnight. Exponentially growing cells were then incubated with 6h at either 0.01 or 0.1 µM, or taxol at 0.1 µM. Vehicle group was treated with 0.1% DMSO. Following 12 h of incubation, cells were analysed for apoptosis as previously described, using a FACSCalibur flow cytometer with Cell Quest software (Becton-Dickinson, Franklin Lakes, NJ, USA).

Row | Structure (SMILES) | IC50 [1] | melting point | IC50 [2] | IC50 ([3]; Homo sapiens, MGC-803, 48 h) | IC50 [4] | IC50 [5] | IC50 [6] | in vitro anticancer activity [7] | IC50 [8] | IC50 [9] | IC50 [10] | IC50 [11] | IC50 [12] | further results
1 | COc1cc(/C(C#N)=C/c2ccc([N+](=O)[O-])cc2)cc(OC)c1OC [Compound 6a, (Z)-3-(4-Nitrophenyl)-2-(3,4,5-trimethoxyphenyl)acrylonitrile] | > 100 µM | 174 to 176 °C | > 100 µM | > 100 µM | > 100 µM | > 100 µM | > 100 µM | extremely poor | > 100 µM | > 100 µM | > 100 µM | > 100 µM | > 100 µM | 
2 | COc1cc(/C(C#N)=C/c2ccc(Oc3ccccc3)cc2)cc(OC)c1OC [Compound 6b] | > 100 µM | 92 to 94 °C | > 100 µM | > 100 µM | > 100 µM | > 100 µM | > 100 µM | extremely poor | > 100 µM | > 100 µM | > 100 µM | > 100 µM | > 100 µM | 
3 | COc1cccc(/C=C(\C#N)c2cc(OC)c(OC)c(OC)c2)c1 [Compound 6c, (Z)-3-(3-Methoxyphenyl)-2-(3,4,5-trimethoxyphenyl)acrylonitrile] | > 100 µM | 144 to 146 °C | > 100 µM |  | > 100 µM | > 100 µM | > 100 µM | extremely poor | > 100 µM | > 100 µM | > 100 µM | > 100 µM | 65.1 ± 6.64 µM | IC50 ([3]; Homo sapiens): 22.6 ± 9.25 µM
4 | COc1cc(/C=C(\C#N)c2cc(OC)c(OC)c(OC)c2)cc(OC)c1OC [Compound 6e, (Z)-2,3-Bis(3,4,5-trimethoxyphenyl)acrylonitrile] | 70.6 ± 7.65 µM | 84 to 86 °C | 32.1 ± 5.25 µM | > 100 µM | 15.6 ± 2.45 µM | > 100 µM | 31.2 ± 2.01 µM | weak anticancer activity | > 100 µM | 44.6 ± 9.11 µM | > 100 µM | > 100 µM | 32.9 ± 17.6 µM | 
5 | COc1cc(/C(C#N)=C/c2ccccn2)cc(OC)c1OC [Compound 7b, (Z)-3-(Pyridin-2-yl)-2-(3,4,5-trimethoxyphenyl)acrylonitrile] | > 100 µM | 128 to 130 °C | > 100 µM | > 100 µM | 33.4 ± 17.4 µM | > 100 µM | 44.6 ± 32.7 µM | extremely poor | > 100 µM | > 100 µM | > 100 µM | > 100 µM | 16 ± 5.67 µM | 
6 | Cc1ccc(/C(C#N)=C/c2ccccc2)cc1 [Compound 13d, (Z)-3-Phenyl-2-(p-tolyl)acrylonitrile] | > 100 µM | 145 to 147 °C | > 100 µM | 89.2 ± 3.2 µM | > 100 µM | > 100 µM | > 100 µM |  | > 100 µM | > 100 µM | > 100 µM | > 100 µM | > 100 µM | 
7 | Cc1ccc(/C(C#N)=C/c2cccs2)cc1 [Compound 14a, (Z)-3-(Thiophen-2-yl)-2-(p-tolyl)acrylonitrile] | > 100 µM | 128 to 130 °C | > 100 µM | > 100 µM | > 100 µM | > 100 µM | > 100 µM |  | > 100 µM | > 100 µM | > 100 µM | > 100 µM | > 100 µM | 
8 | Cc1ccc(/C(C#N)=C/c2ccccn2)cc1 [Compound 14b, (Z)-3-(Pyridin-2-yl)-2-(p-tolyl)acrylonitrile] | > 100 µM | 102 to 104 °C | > 100 µM | > 100 µM | > 100 µM | > 100 µM | > 100 µM |  | > 100 µM | > 100 µM | > 100 µM | > 100 µM | > 100 µM | 
9 | Oc1ccc(/C=C/c2cc(O)cc(O)c2)cc1 [Resveratrol, (E)-3,5,4′-trihydroxystilbene] |  |  |  |  |  |  |  |  |  |  |  |  |  | IC50 [13]: 120 µM
10 | CC(=O)O[C@H]1C(=O)[C@@]2(C)[C@H]([C@H](OC(=O)c3ccccc3)[C@]3(O)C[C@H](OC(=O)[C@H](O)[C@@H](NC(=O)c4ccccc4)c4ccccc4)C(C)=C1C3(C)C)[C@]1(OC(C)=O)CO[C@@H]1C[C@@H]2O [Taxol, reference compound] | > 100 µM |  | 0.03 ± 0.01 µM | < 0.06 µM | 0.18 ± 0.02 µM | 0.44 ± 0.02 µM | 0.09 ± 0.02 µM |  | 13 ± 0.47 µM | 0.02 ± 0.01 µM | 0.94 ± 0.03 µM | > 100 µM | 0.08 ± 0.01 µM | SI IC50 (L-02/HCT116) ([2]; selectivity index, IC50 (L-02)/IC50 (HCT116)): >3333; total apoptotic cells (early + late apoptotic cells) [14]: 10.7%; IC50 [3]: 0.06 ± 0.01 µM; SI IC50 (L-02/MGC-803) ([3]; selectivity index, IC50 (L-02)/IC50 (MGC-803)): >1666; SI IC50 (L-02/A549) ([5]; selectivity index, IC50 (L-02)/IC50 (A549)): >227.2; SI IC50 (L-02/BEL-7402) ([6]; selectivity index, IC50 (L-02)/IC50 (BEL-7402)): >1111; SI IC50 (L-02/AGS) ([9]; selectivity index, IC50 (L-02)/IC50 (AGS)): >5000; SI IC50 (L-02/HepG-2) ([10]; selectivity index, IC50 (L-02)/IC50 (HepG-2)): >106.3; SI IC50 (MCF-10A/MCF-7) ([12]; selectivity index, IC50 (MCF-10A)/IC50 (MCF-7)): >2.2
